From patent EP0358154B1, “Novel cyclobutane derivative and process for producing same” (NIPPON KAYAKU KABUSHIKI KAISHA, priority 1988, dated 1990) come the findings set out here.

Structures are written as SMILES. In brackets after ≈: the same amount, converted by molar mass. Read-outs that look alike come from different tables or passages of the source.

Test [1] concerns herpes simplex virus type 2 (HSV-2). Briefly: HSV-2 infection in mice, survival (Experimental Example 6). It counts as in vivo, Balb/c mice. As to conditions: for Means survival time / Survivors/Total: once a day for 10 days, monitored 20 days. The method, then: Activity of the sample (compound No. 2) against herpes simplex virus type 2 (HSV-2) infection was examined in mice. Balb/c mice (6 week-old, male) were inoculated intraperitoneally (l.p.) with HSV-2 strain 186 at 4.8 x 10^5 PFU/0.2 ml per mouse. The sample was formulated in saline and applied either orally (p.o.) or i.p. at the indicated doses once a day for 10 days, starting 6 hrs after virus infection. The mortality was monitored for 20 days after inoculation. Efficacy of the sample was indicated as extension of survival time and number of survivors. Aciclovir (ACV: commercialized antiviral agent) was used as reference sample.

For test [2], the system named is simple Herpes 1 type virus (HSV-I). Briefly: Plaque formation inhibition, HSV-I on Vero cell monolayer (Method 1). It counts as cell-based. As to conditions: read-out: IC50(µg/ml) HSV-1. How it is done: (§1) Antiviral activities against simple Herpes 1 type virus (HSV-I) and simple Herpes 2 type virus (HSV-II), both belonging to DNA virus, were examined by the following methods.
(§2) A 6-well multi-plate having a single layer of Vero cell (derived from the kidney cell of African Green-Monkey was infected with 100 to 150 PFU (plaque forming units) of virus. After adsorption at 37°C for one hour, a layer of agar medium (Eagle MEM medium containing 1.5% of agar) containing a varied concentration of sample was superposed thereon, and a cultivation was carried out at 37°C for 48 hours in 5% (v/v) carbon dioxide incubator. The formation of plaque was measured, from which 50% inhibitory value (IC50) was determined.

Test [3] relates to Human Immunodeficiency Virus (HIV). Briefly: Anti-HIV activity in MT-4 cells, virus antigen by fluorescent antibody method (Method 4). It counts as cell-based. The settings on record: Human immunodeficiency virus 1, MT4, 96 h, read-out: IC50(µg/ml) HIV. The method, then: Antiviral activity against Human Immunodeficiency Virus (HIV) belonging to […] was examined by the following method.
MT-4 cell (about 50,000 cells/ml) was introduced into a 24-well tray, to which was added […] of a solution containing a predetermined quantity of sample compound. Culture was carried out at 37°C for 2 hours in 5% (v/v) carbon dioxide incubator. Then, 10^3 to 10^4 infection units of HIV was added and cultured for 4 days, after which a part of the culture fluid was applied onto a slide glass and immobilized with acetone and development of virus antigen was tested by fluorescent antibody method.
As the primary antibody of fluorescent antibody method, serum of AIDS patient was used. As the secondary antibody, […] was used.

For test [4], the system named is human Cytomegalovirus (HCMV). Briefly: Anti-HCMV plaque formation inhibition on human embryonal fibroblast (Method 2). It counts as cell-based. The settings on record: read-out: IC50(µg/ml) HCMV. The method, then: Antiviral activity against human Cytomegalovirus (HCMV) belonging to DNA virus was examined by the following method.
Anti-HCMV activity was determined in the following manner. Thus, a 35 mm dish having a single layer of human embryonal fibroblast was infected with 100 PFU of HCMV (A0169 strain). After adsorption for one hour, one layer of a medium (0.5% agarose, 2% fetal calf serum) containing a varied concentration of sample compound was superposed thereon, and cultivation was carried out at 37°C for 10 days in 5% (v/v) carbon dioxide incubator. Then, formation of plaque was measured, from which 50% inhibitory value (IC50) was determined.

The test system of test [5] is B hepatitis virus (HBV). Nature of the test: Anti-HBV activity in HB611 liver cells, HBV DNA by Southern method (Method 3). It counts as cell-based. As to conditions: read-out: IC50(µg/ml) HBV. The method, then: Antiviral activity against B hepatitis virus (HBV) belonging to DNA virus was examined by the following method.
According to the procedure of Dulbecco (Proc. Natl. Acad. Sci. USA, 84, 444 (1987)), cultured liver cell strain HB611 producing and releasing active B hepatitis virus was cultured in a modified Eagle medium (GIBCO) at 37°C at a CO2 concentration of 5% in the presence of 10% fetal calf serum, 200 micrograms/ml of G418, 100 µ/ml of Penicillin and 100 µ/ml of Streptomycin. The culture fluid was inoculated onto a 6-well plate at a rate of 5 x 10^4 cells/well (35 mm). One or two days after, 50% confluence was reached, when a predetermined quantity of sample compound was added and cultivation was continued. Thereafter, cultivation was continued for 15 days, while refreshing the medium with a fresh medium containing the same concentrations of the chemicals at intervals of 3 days. Then, the medium was removed, and the cell bodies were treated with 0.5 ml of Lysis buffer (10 mM Tris HCl, pH 7.8/5 mM Na2EDTA, 1% SDS/0.1 mg/ml […]) at 37°C for one hour and dissolved thereinto. The DNA thus obtained was purified by RNase treatment, phenolchloroform treatment and ethanol precipitation.
Then, 5 micrograms of DNA was subjected to Hind III treatment, and DNA pattern was analyzed according to Southern method by using ^32P-labelled B hepatitis virus DNA as a probe.

Test [6] relates to human cervical cancer HeLa S3 cell. Nature of the test: Growth inhibition of HeLa S3 cells, Methylene Blue dyeing (Method 5). It counts as cell-based. The settings on record: read-out: IC50(µg/ml) HeLaS3. The method, then: Carcinostatic activities on human cervical cancer HeLa S3 cell, mouse leukemia L1210 cell and […] cell were examined by the following methods. HeLa S3 cell was made into a suspension (7.5 x 10^3 cells/ml). The suspension was spread on a 96-well flat plate at a rate of 0.2 ml/well. After culturing it at 37°C for 24 hours in 5% carbon dioxide incubator, 10 microliters of a sample was added and cultivation was carried out for 72 hours. Then, culture fluid was taken out from each well and immobilized with methanol, after which 0.1 ml/well of 0.05% Methylene Blue/10 mM-Tris-HCl (pH 8.5) solution was added and dyeing was carried out at room temperature for 30 minutes. The dyed fluid in each well was withdrawn by means of aspirator and three times washed with pure water. Then, 3% HCl was added at a rate of 0.2 ml/well and the resulting mixture was sealed and allowed to stand at room temperature for about 24 hours, to extract pigment from the cells. Optical absorbance of each well at 660 nm was measured by means of […] Microplate Reader, from which growth inhibitory rate (%) at varied concentration was calculated according to the following equation. […] Growth inhibitory rate (%) = (1 - A1 /A0 ) x 100 [formula] wherein A1 = Absorbance in the treated group, A0 = Absorbance in the control group.

For test [7], the system named is human leukemia P388 cell. Nature of the test: Growth inhibition of P388 cells, cell counting (Method 6). It counts as cell-based. As to conditions: read-out: IC50(µg/ml) P388. The method, then:
(§3) Carcinostatic activities on human cervical cancer HeLa S3 cell, mouse leukemia L1210 cell and […] cell were examined by the following methods. Cells of P388 and L1210 were spread onto a 24-well plate. After adding a sample, it was cultured at 37°C for 48 hours in 5% CO2 incubator. After the culture, the number of cells was counted by means of […]. The growth inhibitory rate in the treated group, based on that in the control group, was calculated from the following equation, from which 50% inhibitory concentration (CI50, micrograms/ml) was determined: The results obtained are as shown in Table 3. Growth inhibitory rate (%) = [1-(NT -NO )/NC -NO ] x 100 [formula] wherein NT = Cell number in treated group NO = cell number at the start of culture NC = Cell number in control group Table 3

Test [8] has as its system simple Herpes 2 type virus (HSV-II). Nature of the test: Plaque formation inhibition, HSV-II on Vero cell monolayer (Method 1). It counts as cell-based. The settings on record: read-out: IC50(µg/ml) HSV-2. How it is done:
as §1, §2

Test [9] deals with mouse leukemia L1210 cell. Briefly: Growth inhibition of L1210 cells, cell counting (Method 6). It counts as cell-based. As to conditions: read-out: IC50(µg/ml) L1210. How it is done: as §3

As to `Nc1nc2c(ncn2COCCO)c(=O)[nH]1` [ACV, Aciclovir, reference compound], the Means survival time in test [1] (i.p., 12.5 mg/kg/day) worked out at 11.1 days; in test [1] (i.p., 25 mg/kg/day), 12.7 days; in test [1] (i.p., 50 mg/kg/day), 16.1 days; in [1] (i.p., 100 mg/kg/day) it was 5.4 days; in [1] (p.o., 12.5 mg/kg/day) it was 9.3 days; in test [1] (p.o., 25 mg/kg/day), 11.1 days. The Means survival time in test [1] (p.o., 50 mg/kg/day) was 14.8 days; in test [1] (p.o., 100 mg/kg/day) it was 14.3 days. Moreover, the Survivors/Total is 1/10 in test [1] (i.p., 12.5 mg/kg/day); 1/10 in test [1] (i.p., 25 mg/kg/day); 5/10 in [1] (i.p., 50 mg/kg/day); 2/10 in [1] (i.p., 100 mg/kg/day); 0/10 in [1] (p.o., 12.5 mg/kg/day); 0/10 in test [1] (p.o., 25 mg/kg/day). In addition, the Survivors/Total in test [1] (p.o., 50 mg/kg/day) is 4/10; in test [1] (p.o., 100 mg/kg/day), 2/10.

Regarding `Nc1ncnc2c1ncn2[C@@H]1C[C@H](CO)[C@H]1CO` [Compound 1, 9-[(1R,2R,3S)-2,3-Bis(hydroxymethyl)cyclobutane-1-yl] -adenine], the IC50 turned out to be 7.3 µg/mL (≈ 29.3 µM) in [2] (Human alphaherpesvirus 1, Vero cell, plaque formation, 48 hours); 0.03 µg/mL (≈ 0.12 µM) in [3] (MT-4 cell, cultured for 4 days, virus antigen); 12 µg/mL (≈ 48.1 µM) in test [4] (Human betaherpesvirus 5, 240 h, human embryonal fibroblast, A0169 strain, plaque formation, 10 days); 0.024 µg/mL (≈ 0.0963 µM) in [5] (360 h, HB611 cells, 15 days, HBV DNA); 14 µg/mL (≈ 56.2 µM) in [6] (HeLa S3, 72 hours, growth inhibition); 0.58 µg/mL (≈ 2.33 µM) in test [7] (P388, 48 hours, growth inhibition). Also, the IC50 in [8] (Human alphaherpesvirus 2, Vero cell, plaque formation, 48 hours) was 8.9 µg/mL (≈ 35.7 µM); in test [9] (L1210, 48 hours, growth inhibition), 1.1 µg/mL (≈ 4.41 µM).

Consider `Nc1nc2c(ncn2[C@@H]2C[C@H](CO)[C@H]2CO)c(=O)[nH]1` [Compound 2, 9-[(1R,2R,3S)-2,3-Bis(hydroxymethyl)cyclobutane-1-yl] -guanine], for which the IC50 stood at 0.03 µg/mL (≈ 0.113 µM) in test [2] (Human alphaherpesvirus 1, Vero, 48 h); 0.3 µg/mL (≈ 1.13 µM) in test [3]; 0.4 µg/mL (≈ 1.51 µM) in test [4] (Human betaherpesvirus 5, Fibroblast, 240 h); 0.86 µg/mL (≈ 3.24 µM) in test [5] (HB611, 360 h); 19 µg/mL (≈ 71.6 µM) in test [6] (HeLa S3, 72 h); 1.6 µg/mL (≈ 6.03 µM) in test [7] (P388, 48 h). The IC50 in test [8] (Human alphaherpesvirus 2, Vero, 48 h) was found to be 0.13 µg/mL (≈ 0.49 µM); in [9] (L1210, 48 h) it was 8.1 µg/mL (≈ 30.5 µM). For the same compound, the Means survival time in test [1] (i.p., 1.25 mg/kg/day) came out at 19.8 days; in [1] (i.p., 2.5 mg/kg/day) it was 18.9 days; in test [1] (i.p., 5 mg/kg/day), 20.0 days; in test [1] (i.p., 10 mg/kg/day), 20.0 days; in test [1] (i.p., 20 mg/kg/day) it was 20.0 days; in test [1] (p.o., 1.25 mg/kg/day), 12.4 days. Besides, the Means survival time in test [1] (p.o., 2.5 mg/kg/day) turned out to be 14.7 days; in test [1] (p.o., 5 mg/kg/day), 18.9 days; in test [1] (p.o., 10 mg/kg/day), 19.8 days; in test [1] (p.o., 20 mg/kg/day), 19.7 days. Further, the Survivors/Total in test [1] (i.p., 1.25 mg/kg/day) is 7/10; in test [1] (i.p., 2.5 mg/kg/day), 9/10; in test [1] (i.p., 5 mg/kg/day), 10/10; in test [1] (i.p., 10 mg/kg/day) it was 10/10; in test [1] (i.p., 20 mg/kg/day), 10/10; in test [1] (p.o., 1.25 mg/kg/day), 2/10. Also, the Survivors/Total in [1] (p.o., 2.5 mg/kg/day) was 4/10; in [1] (p.o., 5 mg/kg/day), 8/10; in test [1] (p.o., 10 mg/kg/day), 9/10; in [1] (p.o., 20 mg/kg/day), 9/10. In addition, the “reducing mortality rate of mice infected with HSV-2” value in test [1] (irrespective of administration routes (i.p., p.o.), 1.25 to 20 mg/kg per day) is reported as “highly effective”.
